Columns and labels:
Format in all cases: cell-based, Aspergillus niger
gfaA = experiment: Northern blot analysis of gfaA expression in CFW stressed germlings; settings: germlings treated with 200 μg/ml CFW; RNA 1, 2 and 4 hours after addition; vs untreated germlings
Description: (§1) To identify genes that are induced upon cell wall stress, we have first investigated which cell wall perturbing compound was suited for this purpose. Finally, we used the antifungal compound Calcofluor White (CFW) to induce cell wall stress. […] Because of the defects in cell wall assembly, the cell wall is weakened en swells from internal pressure. Polarized growth is resumed after 2-4 hours. Both the effect of hyphal tip swelling and the time that is required to resume growth are dependent on the concentration of CFW (FIG. 3). To identify genes that are induced upon CFW treatment, mRNA has been isolated from germling that have been treated with or without CFW for various time intervals. […] These germlings were than treated with 200 μg/ml CFW. After 1, 2 and 4 hours after addition of CFW total RNA was isolated and used in Northern blot experiments (see FIG. 4). As a control, total RNA was isolated from germlings that were not treated with CFW. Several probes encoding putative proteins involved in cell wall biosynthesis have been analysed and quantified.
(§2) The highest induction was found for agsA. Thus, these genes are regulated by the promoter sequences as a response to the induced cell wall stress. Such promoters are suitable candidates for use as reporters. […] No signal could be detected for the other ags homologs.

[1] = test system: germinated spores of A. niger; experiment: Effect of CFW addition on growth of germlings
Description: FIG. 3: Effect of CFW addition on growth of germlings. Germinated spores of A. niger were treated with increasing concentrations of CFW. Both the extend of hyphal tip swelling and the time required to resume growth is dependent on the concentration of CFW.
as §1

fksA = experiment: Northern blot analysis of fksA expression in CFW stressed germlings; settings: in the presence of CFW (200 μg/ml)
Description: as §1, §2

agsA promoter = experiment: PagsA-AmdS reporter strain growth on acetamide plates; settings: 0.5 mg/ml CFW added to the plates
Excerpt: Aspergillus niger grows poorly on acetamide as a nitrogen source. When additional copies of the amdS gene, encoding a acetamidase of A. nidulans are introduced, A. niger can grown on acetamide plates and the amdS gene can therefore be used as a selectable marker (Kelly and Hynes, 1985). The coding region of the amdS gene was fused to the agsA promoter sequence. Both the relatively low basal expression of the agsA gene and the high level of induction after CFW stress (over 20-fold) makes the agsA promoter a good candidate for use as a reporter. The reporter construct further comprises the amdS gene (A. nidulans) with its own terminator. For targeting to the pyrG locus of the A. niger strain AB4.1 (pyrG^−) the pyrG* gene is included in the construct (cf. Van Gorcum et al., 1988). […]
The construct was transformed to strain AB4.1 (a pyrG negative strain derived from N402) and transformants were selected on the presence of an intact pyrG gene. Wild type strain N402 and purified transformants (ABRD1.1-1.25 and ABRD2.1-2.15) were analysed were grown on acetamide and acrylamide plates. […] The majority of the transformants were analysed by Southern blotting to confirm correct integration of the construct.

Question: With O=S(=O)(O)c1cc(Nc2nc(Nc3ccccc3)nc(N(CCO)CCO)n2)ccc1/C=C/c1ccc(Nc2nc(Nc3ccccc3)nc(N(CCO)CCO)n2)cc1S(=O)(=O)O [CFW, Calcofluor White] as the compound, how does the “increase in gfaA mRNA level” value (gfaA) read?
Answer: 4 fold

Question: And the “time until polarized growth is resumed” value ([1]; after CFW treatment, dependent on CFW concentration)?
Answer: 2 to 4 h

Question: What about the “hyphal morphology of germinating spores” value ([1]; treatment of germinating spores with CFW, concentration dependent) of the same compound?
Answer: formation of swollen hyphe

Question: And the “expression level of fksA” value (fksA)?
Answer: not significantly altered

Question: What about the “growth of PagsA-AmdS transformants on acetamide plates” value (agsA promoter) of the same compound?
Answer: resulted in growth (and sporulation) for the majority of the transformants

— patent US20060088902A1, “Methods and materials for the identification of antifungal substrates in filamentous fungi” (priority 2001, published 2006)
